Results on 23 compounds are retold here after patent publication US7138421B2, “Anti-androgenic pyrrolidines with tumor-inhibiting action” (Schring Aktiengesellschaft, priority 2003, dated 2006).

This test relates to LNCaP cells. Nature of the test: Inhibition of the proliferation of LNCaP cells (crystal violet assay). It counts as cell-based, human. As to conditions: for inhibition at 1 µM / IC50: Homo sapiens, LNCaP; for inhibition at 1 µM: 1 μM test substance, compared to cell growth in the presence of 0.1 nmol of R1881, read-out: % Inhibition at 1 μM; for IC50: in the presence of 0.1 nmol of R1881, 7 to 8 days, read-out: IC50 inhibition of the proliferation of LNCaP cells; for antiproliferative action (in words): LNCaP cells. On the procedure: For the proliferation assay, 6000 LNCaP cells/well (Horoszewicz et al. Cancer Res. 1983, 43, 1809–1817) in a microtiter plate (96-well) in 50 μl of RPMI1640 medium are grown with 5% CCS and cultivated as in Model 1. After 24 hours, the cells receive 50 μl of 2×-concentrated test substance, diluted in culture medium. The solvent concentration is 0.5% DMSO. After 4 days, the cells receive another 100 μl of 1×-concentrated test substance, diluted in culture medium. After 7 to 8 days, the proliferation rate of the cells is determined by means of crystal violet assay (Gillies et al. Anal. Biochem. 1986, 159, 109–113). To determine the antagonism, the substance treatment is performed in the presence of […] of R1881 (1:1000 dilution of ethanolic solution). Control cells receive only 0.5% DMSO. For the agonism, the cells are treated only with test substance (without R1881).

`COC[C@@H]1CCCN1CCCCCCCCCN1C(=S)N(c2ccc(C#N)c(C(F)(F)F)c2)C(=O)C1(C)C` [Example 21, 4-[3-[9-[(2S)-2-(Methoxymethyl)pyrrolidin-1-yl]nonyl]-4,4-dimethyl-5-oxo-2-thioxoimidazolidin-1-yl]-2-(trifluoromethyl)benzonitrile]: the inhibition at 1 µM is 94% and the IC50 was 47 nM.

Take `COC[C@H]1CCCN1CCCCCCCN1C(=S)N(c2ccc(C#N)c(C(F)(F)F)c2)C(=O)C1(C)C` [Example 16, 4-[3-[7-[(2R)-2-(Methoxymethyl)pyrrolidin-1-yl]heptyl]-4,4-dimethyl-5-oxo-2-thioxoimidazolidin-1-yl]-2-(trifluoromethyl)benzonitrile]: the inhibition at 1 µM is 98% and the IC50 was determined as 18 nM.

Turning to `CCC(O)(CC)[C@@H]1CCCN1CCCCCCCCN1C(=S)N(c2ccc(C#N)c(C(F)(F)F)c2)C(=O)C1(C)C` [Example 47, 4-[3-[8-[(2S)-2-(1-Hydroxy-1-ethylpropyl)pyrrolidin-1-yl]octyl]-4,4-dimethyl-5-oxo-2-thioxoimidazolidin-1-yl]-2-(trifluoromethyl)benzonitrile], the inhibition at 1 µM turned out to be 99% and the IC50 came out at 27 nM.

Consider `CC1(C)C(=O)N(c2ccc(C#N)c(C(F)(F)F)c2)C(=S)N1CCCCCN1CCCC1` [Comparison 2, 4-[4,4-Dimethyl-5-oxo-3-[5-(pyrrolidin-1-yl)pentyl]-2-thioxoimidazolidin-1-yl]-2-(trifluoromethyl)benzonitrile, reference compound], for which the inhibition at 1 µM was 38%, the IC50 is 2100 nM and the “antiproliferative action (in words)” value is given as “considerably reduced antiproliferative activity”.

As for `CC1(C)C(=O)N(c2ccc(C#N)c(C(F)(F)F)c2)C(=S)N1CCCCCCCN1CCCC1` [Example 4, 4-[4,4-Dimethyl-5-oxo-3-[7-(pyrrolidin-1-yl)heptyl]-2-thioxoimidazolidin-1-yl]-2-(trifluoromethyl)benzonitrile], the inhibition at 1 µM turned out to be 98% and the IC50 was 45 nM.

On to `CC1(C)C(=O)N(c2ccc(C#N)c(C(F)(F)F)c2)C(=S)N1CCCCCCCCCN1CCC[C@H]1CO` [Example 13, 4-[3-[9-[(2S)-2-(Hydroxymethyl)pyrrolidin-1-yl]nonyl]-4,4-dimethyl-5-oxo-2-thioxoimidazolidin-1-yl]-2-(trifluoromethyl)benzonitrile], for which the inhibition at 1 µM stood at 88% and the IC50 was determined as 16 nM.

On to `CC1(C)C(=O)N(c2ccc(C#N)c(C(F)(F)F)c2)C(=S)N1CCCCCCCCN1CC[C@@H](C(N)=O)C1` [Example 54, (R)-1-[8-[3-[4-Cyano-3-(trifluoromethyl)phenyl]-5,5-dimethyl-4-oxo-2-thioxoimidazolidin-1-yl]octyl]pyrrolidine-4-carboxamide], for which the inhibition at 1 µM was 93% and the IC50 was 64 nM.

Consider `COC[C@H]1CCCN1CCCCCCCCCN1C(=S)N(c2ccc(C#N)c(C(F)(F)F)c2)C(=O)C1(C)C` [Example 20, 4-[3-[9-[(2R)-2-(Methoxymethyl)pyrrolidin-1-yl]nonyl]-4,4-dimethyl-5-oxo-2-thioxoimidazolidin-1-yl]-2-(trifluoromethyl)benzonitrile], for which the inhibition at 1 µM was found to be 101% and the IC50 worked out at 29 nM.

In the case of `CC(C)(O)[C@@H]1CCCN1CCCCCCCN1C(=S)N(c2ccc(C#N)c(C(F)(F)F)c2)C(=O)C1(C)C` [Example 39, 4-[3-[7-[(2S)-2-(1-Hydroxy-1-methylethyl)pyrrolidin-1-yl]heptyl]-4,4-dimethyl-5-oxo-2-thioxoimidazolidin-1-yl]-2-(trifluoromethyl)benzonitrile], the inhibition at 1 µM is 108% and the IC50 stood at 41 nM.

With `CC1CCCN1CCCCCCCCN1C(=S)N(c2ccc(C#N)c(C(F)(F)F)c2)C(=O)C1(C)C` (stereo not drawn) [Example 36, 4-[4,4-Dimethyl-3-[8-(2-methylpyrrolidin-1-yl)octyl]-5-oxo-2-thioxoimidazolidin-1-yl]-2-(trifluoromethyl)benzonitrile], the inhibition at 1 µM turned out to be 96% and the IC50 is 15 nM.

Regarding `CC1(C)C(=O)N(c2ccc(C#N)c(C(F)(F)F)c2)C(=S)N1CCCCCCCN1CC[C@H](C(N)=O)C1` [Example 50, (S)-1-[7-[3-[4-Cyano-3-(trifluoromethyl)phenyl]-5,5-dimethyl-4-oxo-2-thioxoimidazolidin-1-yl]heptyl]pyrrolidine-4-carboxamide], the inhibition at 1 µM amounted to 110% and the IC50 was 15 nM.

Consider `CC1CCCN1CCCCCCCN1C(=S)N(c2ccc(C#N)c(C(F)(F)F)c2)C(=O)C1(C)C` (stereo not drawn) [Example 35, 4-[4,4-Dimethyl-3-[7-(2-methylpyrrolidin-1-yl)heptyl]-5-oxo-2-thioxoimidazolidin-1-yl]-2-(trifluoromethyl)benzonitrile], for which the inhibition at 1 µM amounted to 92% and the IC50 worked out at 30 nM.

Take `CC1(C)C(=O)N(c2ccc(C#N)c(C(F)(F)F)c2)C(=S)N1CCCCN1CCCC1` [Comparison 1, 4-[4,4-Dimethyl-5-oxo-3-[4-(pyrrolidin-1-yl)butyl]-2-thioxoimidazolidin-1-yl]-2-(trifluoromethyl)benzonitrile, reference compound]: the inhibition at 1 µM worked out at 20%, the IC50 was 4300 nM and the “antiproliferative action (in words)” value was “considerably reduced antiproliferative activity”.

Regarding `CC1(C)C(=O)N(c2ccc(C#N)c(C(F)(F)F)c2)C(=S)N1CCCCCCCCN1CC[C@@H](O)C1` [Example 28, 4-[3-[8-[(R)-3-Hydroxypyrrolidin-1-yl]octyl]-4,4-dimethyl-5-oxo-2-thioxoimidazolidin-1-yl]-2-(trifluoromethyl)benzonitrile], the inhibition at 1 µM is 102% and the IC50 worked out at 11 nM.

In the case of `CC1(C)C(=O)N(c2ccc(C#N)c(C(F)(F)F)c2)C(=S)N1CCCCCCCCN1CC[C@H](C(N)=O)C1` [Example 51, (S)-1-[8-[3-[4-Cyano-3-(trifluoromethyl)phenyl]-5,5-dimethyl-4-oxo-2-thioxoimidazolidin-1-yl]octyl]pyrrolidine-4-carboxamide], the inhibition at 1 µM is 97% and the IC50 is 20 nM.

As to `CC(C)(O)[C@@H]1CCCN1CCCCCCCCCN1C(=S)N(c2ccc(C#N)c(C(F)(F)F)c2)C(=O)C1(C)C` [Example 41, 4-[3-[9-[(2S)-2-(1-Hydroxy-1-methylethyl)pyrrolidin-1-yl]nonyl]-4,4-dimethyl-5-oxo-2-thioxoimidazolidin-1-yl]-2-(trifluoromethyl)benzonitrile], the inhibition at 1 µM turned out to be 89% and the IC50 amounted to 48 nM.

As for `CC1(C)C(=O)N(c2ccc(C#N)c(C(F)(F)F)c2)C(=S)N1CCCCCCCN1CC[C@H](O)C1` [Example 31, 4-[3-[7-[(S)-3-Hydroxypyrrolidin-1-yl]heptyl]-4,4-dimethyl-5-oxo-2-thioxoimidazolidin-1-yl]-2-(trifluoromethyl)benzonitrile], the inhibition at 1 µM was determined as 104% and the IC50 is 20 nM.

For `CC(C)(O)[C@H]1CCCN1CCCCCCCN1C(=S)N(c2ccc(C#N)c(C(F)(F)F)c2)C(=O)C1(C)C` [Example 43, 4-[3-[7-[(2R)-2-(1-Hydroxy-1-methylethyl)pyrrolidin-1-yl]heptyl]-4,4-dimethyl-5-oxo-2-thioxoimidazolidin-1-yl]-2-(trifluoromethyl)benzonitrile], the inhibition at 1 µM came to 113% and the IC50 came out at 26 nM.

Take `CC1(C)C(=O)N(c2ccc(C#N)c(C(F)(F)F)c2)C(=S)N1CCCCCCCCN1C2CCC1CC(O)C2` (stereo not drawn) [Example 24, 4-[3-[8-(3-Hydroxy-8-azabicyclo[3.2.1]oct-8-yl)octyl]-4,4-dimethyl-5-oxo-2-thioxoimidazolidin-1-yl]-2-(trifluoromethyl)benzonitrile]: the inhibition at 1 µM amounted to 102% and the IC50 amounted to 13 nM.

Take `CC1(C)C(=O)N(c2ccc(C#N)c(C(F)(F)F)c2)C(=S)N1CCCCCCCN1CCC[C@@H]1CO` [Example 8, 4-[3-[7-[(2R)-2-(Hydroxymethyl)pyrrolidin-1-yl]heptyl]-4,4-dimethyl-5-oxo-2-thioxoimidazolidin-1-yl]-2-(trifluoromethyl)benzonitrile]: the inhibition at 1 µM came to 101% and the IC50 was found to be 11 nM.

Consider `CC1(C)C(=O)N(c2ccc(C#N)c(C(F)(F)F)c2)C(=S)N1CCCCCCCCCN1CCC[C@@H]1CO` [Example 12, 4-[3-[9-[(2R)-2-(Hydroxymethyl)pyrrolidin-1-yl]nonyl]-4,4-dimethyl-5-oxo-2-thioxoimidazolidin-1-yl]-2-(trifluoromethyl)benzonitrile], for which the inhibition at 1 µM was 93% and the IC50 worked out at 24 nM.

With `COC[C@@H]1CCCN1CCCCCCCCN1C(=S)N(c2ccc(C#N)c(C(F)(F)F)c2)C(=O)C1(C)C` [Example 19, 4-[3-[8-[(2S)-2-(Methoxymethyl)pyrrolidin-1-yl]octyl]-4,4-dimethyl-5-oxo-2-thioxoimidazolidin-1-yl]-2-(trifluoromethyl)benzonitrile], the inhibition at 1 µM stood at 97% and the IC50 came to 25 nM.

As to `CC1(C)C(=O)N(c2ccc(C#N)c(C(F)(F)F)c2)C(=S)N1CCCCCCCN1C2CCC1CC(O)C2` (stereo not drawn) [Example 23, 4-[3-[7-(3-Hydroxy-8-azabicyclo[3.2.1]oct-8-yl)heptyl]-4,4-dimethyl-5-oxo-2-thioxoimidazolidin-1-yl]-2-(trifluoromethyl)benzonitrile], the inhibition at 1 µM turned out to be 79% and the IC50 was 48 nM.
